Each structure is given as a SMILES string.

Results on 5 molecules are retold here after patent publication US20210378926A1, “A TOPICAL COMPOSITION” (priority 2018, published 2021).

The assay deals with S. hominis (ATCC 27844). Nature of the assay: Malodor Assay (H2S production, lead acetate paper blackening). The class given is cell-based. As to conditions: S. hominis culture in TSB with 0.1% L-cysteine-HCl, 96 well plate, 37° C. for about 16 hours; blackening of lead acetate paper scored 0 to 10 versus control (completely black); ingredient amounts in ppm as per Table 1. As to the method:
The efficacy of different ingredients and combinations were tried using the Malodor Assay protocol with S. hominis (ATCC 27844) as described below:
The malodour assay was done in a 96 well plate (Nunc™, ThermoFisher). First, a lead acetate paper was prepared as follows. A Whatman™ (No. 1) filter paper (150 mm, Cat No. 1001-150) was taken and cut to match the top cross-sectional dimension of the 96 well plate. 1% Lead acetate (Hi Media, RM 757) solution was prepared in distilled water and the Whatman™ filter paper was soaked in the prepared lead acetate solution. The excess solution from the filter paper was drained and allowed to dry in a Laminar Air Flow for 1 hour. After drying, the filter paper was wrapped in an Aluminium foil and autoclaved at 121° C. for about 20 minutes. This lead acetate paper was used for the assay to capture the malodour generation at the later stage.
A TSB broth solution was prepared by adding 0.1% L-cysteine-HCl (Sigma, C1276) into TSB (Bacto, 211825, 30 g/L) and autoclaved. After that, the 96 well plate was taken followed by addition of 180 μL/well of the above prepared TSB solution into the wells. Then 20 μL/well of S. hominis culture ([…]) was added to the wells. Different ingredient and/or mix of ingredients as per following Table 1 were added into the wells along with a control (only distilled water and bacteria) as per the required concentration (as mentioned in Table 1). Finally, the lead acetate paper that was prepared previously was placed on the wells of the 96-well plate and the lid was closed. This plate was then incubated in an incubator (LABTOP, bacteriological incubator) at 37° C. for about 16 hours. The lid of the plate was opened after the incubation and observed the lead acetate paper for any visual change in colour. […] The results and the effect of actives were compared with the control (completely black).
The results of these experiments are expressed in terms of “% reduction” in H2S production which is determined from the blackening of the spot as explained above. Each spot with different test samples has been compared with the control (completely black) sample. It was then rated on a scale of 0 to 10 (10 being completely black as like control and 0 is no blackening). From the score the percentage reduction was evaluated e.g. if the blackening of any sample is as dark as control then the score given was “8-10” and accordingly % reduction is <20%.

Regarding `C=CCc1ccc(O)c(-c2ccc(O)c(CC=C)c2)c1` [C, honokiol], the “% reduction in H2S production” value is given as 20-40%.

Consider `C=CCc1ccc(O)c(-c2cc(CC=C)ccc2O)c1` [D, magnolol], for which the “% reduction in H2S production” value is below 20%.

Regarding `O=S(=O)([O-])[O-].[Fe+2]` [G, FeSO4], the “% reduction in H2S production” value is below 20%.

For the molecule `O=S(=O)([O-])[O-].[Cu+2]` [J, CuSO4], the “% reduction in H2S production” value was below 20%.

As for `O=S(=O)([O-])[O-].[Cu+2]` [K, CuSO4], the “% reduction in H2S production” value is given as 20-40%.
